Measured values as given in publication PMC8208167 (Applied and Environmental Microbiology, 2021).

Assays:
[1] = tested on: guanylurea hydrolase (GuuH); experiment: ammonia release, Berthelot reaction; format: biochemical, Ectopseudomonas mendocina; conditions: read-out: Exptl determination; 125 mM sodium phosphate, pH 8.0 (optimum), room temperature
[2] = target: biuret hydrolase (BiuH) (Herbaspirillum sp. BH-1, UniProt A0A2N6JFV5); experiment: ammonia release, Berthelot reaction; format: biochemical; conditions: pH […], sodium phosphate; turnover
biuret hydrolase (BiuH), sequence (A0A2N6JFV5 1-231): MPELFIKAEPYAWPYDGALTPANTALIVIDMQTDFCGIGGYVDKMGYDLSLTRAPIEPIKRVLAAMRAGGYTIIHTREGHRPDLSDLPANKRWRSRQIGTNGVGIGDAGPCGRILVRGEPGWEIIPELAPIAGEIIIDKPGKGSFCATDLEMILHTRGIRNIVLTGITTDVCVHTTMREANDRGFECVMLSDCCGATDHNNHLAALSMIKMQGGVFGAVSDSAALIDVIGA

| SMILES | Km [1] | activity [2] |
| --- | --- | --- |
| N=C(N)NC(N)=O [guanylurea] | 16 µM | – |
| NC(=O)NC(N)=O [biuret] | – | diminished activity with biuret compared to that of the wild type |
